In PMC1431542, “Cyclic nucleotide specific phosphodiesterases of Leishmania major” (BMC Microbiology, 2006):

Tests used:
[1] = biological target: T1, LmjPDEB1 (Leishmania major, UniProt Q6S996); assay: 3H-cAMP phosphodiesterase assay in yeast lysate; assay type: cell-based
T1 construct: gene PDEB1; full-length, hemagglutinin-tagged
T1 sequence (Q6S996 1-940): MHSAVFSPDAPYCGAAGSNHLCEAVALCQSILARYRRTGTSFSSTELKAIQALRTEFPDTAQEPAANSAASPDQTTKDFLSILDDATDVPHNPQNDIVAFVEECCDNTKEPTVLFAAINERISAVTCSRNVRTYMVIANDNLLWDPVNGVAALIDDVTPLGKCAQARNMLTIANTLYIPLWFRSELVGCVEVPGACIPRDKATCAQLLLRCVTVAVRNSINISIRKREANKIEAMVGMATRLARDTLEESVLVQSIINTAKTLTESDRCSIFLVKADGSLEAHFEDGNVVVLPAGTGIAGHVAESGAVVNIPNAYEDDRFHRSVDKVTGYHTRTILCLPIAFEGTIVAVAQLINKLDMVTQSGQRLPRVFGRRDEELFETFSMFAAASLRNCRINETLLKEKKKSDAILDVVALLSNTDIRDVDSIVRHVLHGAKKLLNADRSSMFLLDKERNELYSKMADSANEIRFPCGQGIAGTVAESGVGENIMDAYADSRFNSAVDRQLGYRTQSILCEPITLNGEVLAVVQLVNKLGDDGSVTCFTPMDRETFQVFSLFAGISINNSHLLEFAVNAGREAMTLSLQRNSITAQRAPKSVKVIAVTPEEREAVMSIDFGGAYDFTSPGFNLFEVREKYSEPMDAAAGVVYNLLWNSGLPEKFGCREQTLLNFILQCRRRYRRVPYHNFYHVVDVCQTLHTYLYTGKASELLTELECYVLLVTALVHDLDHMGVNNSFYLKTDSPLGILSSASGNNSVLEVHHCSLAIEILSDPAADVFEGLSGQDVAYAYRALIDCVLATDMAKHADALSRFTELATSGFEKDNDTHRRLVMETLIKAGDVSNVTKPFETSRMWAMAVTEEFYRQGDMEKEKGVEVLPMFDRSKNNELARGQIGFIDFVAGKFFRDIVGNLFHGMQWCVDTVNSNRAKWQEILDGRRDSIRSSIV

[2] = biological target: T2, LmjPDEB2 (Leishmania major, UniProt Q6S997); assay: biochemical
T2 construct: gene PDEB2; full-length, hemagglutinin-tagged
T2 sequence (Q6S997 entry or part of it): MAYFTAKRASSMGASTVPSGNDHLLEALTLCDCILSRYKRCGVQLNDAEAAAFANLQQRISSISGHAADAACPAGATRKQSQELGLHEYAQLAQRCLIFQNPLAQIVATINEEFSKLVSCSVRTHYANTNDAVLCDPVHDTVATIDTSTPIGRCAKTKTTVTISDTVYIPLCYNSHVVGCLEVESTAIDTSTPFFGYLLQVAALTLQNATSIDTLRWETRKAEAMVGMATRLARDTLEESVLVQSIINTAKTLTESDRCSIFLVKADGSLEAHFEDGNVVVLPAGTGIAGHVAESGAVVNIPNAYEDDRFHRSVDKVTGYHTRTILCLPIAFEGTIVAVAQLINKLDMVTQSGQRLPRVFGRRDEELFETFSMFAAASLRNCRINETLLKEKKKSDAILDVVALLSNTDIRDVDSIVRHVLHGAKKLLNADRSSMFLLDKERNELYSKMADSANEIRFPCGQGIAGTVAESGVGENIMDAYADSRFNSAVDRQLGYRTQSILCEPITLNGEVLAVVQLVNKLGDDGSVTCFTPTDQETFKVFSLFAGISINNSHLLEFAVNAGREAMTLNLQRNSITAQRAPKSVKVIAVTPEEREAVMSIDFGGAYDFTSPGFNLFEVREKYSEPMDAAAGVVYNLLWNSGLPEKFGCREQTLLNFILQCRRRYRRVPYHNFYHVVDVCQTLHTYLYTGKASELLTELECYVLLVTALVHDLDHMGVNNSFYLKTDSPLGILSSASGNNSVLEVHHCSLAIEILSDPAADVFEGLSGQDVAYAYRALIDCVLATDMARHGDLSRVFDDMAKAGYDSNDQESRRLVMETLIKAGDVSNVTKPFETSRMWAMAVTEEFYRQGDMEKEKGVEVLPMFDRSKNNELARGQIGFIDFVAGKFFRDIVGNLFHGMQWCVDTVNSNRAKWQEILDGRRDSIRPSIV

Row | SMILES | 3H-cAMP phosphodiesterase assay in yeast lysate [1] | IC50 [2] [µM]
1 | CCOC(=O)c1cnc2c(cnn2CC)c1NN=C(C)C [compound 3, etazolate] | Only dipyridamole, trequinsin and etazolate exhibited at least a moderate potency. | –
2 | OCCN(CCO)c1nc(N2CCCCC2)c2nc(N(CCO)CCO)nc(N3CCCCC3)c2n1 [compound 4, dipyridamole] | Only dipyridamole, trequinsin and etazolate exhibited at least a moderate potency. | 29
3 | COc1cc2c(cc1OC)-c1c/c(=N\c3c(C)cc(C)cc3C)n(C)c(=O)n1CC2 [compound 9, trequinsin] | Only dipyridamole, trequinsin and etazolate exhibited at least a moderate potency. | 96
